We go through 30 molecules from patent US11066393B2, “Indolin-2-one derivatives” (Hoffmann-La Roche Inc., priority 2015, dated 2021).

This test concerns the target T1, mouse ENT-1 transporter (Mus musculus, UniProt Q9JIM1).
T1 construct: expressed in transfected cells
T1 sequence (Q9JIM1 1-460): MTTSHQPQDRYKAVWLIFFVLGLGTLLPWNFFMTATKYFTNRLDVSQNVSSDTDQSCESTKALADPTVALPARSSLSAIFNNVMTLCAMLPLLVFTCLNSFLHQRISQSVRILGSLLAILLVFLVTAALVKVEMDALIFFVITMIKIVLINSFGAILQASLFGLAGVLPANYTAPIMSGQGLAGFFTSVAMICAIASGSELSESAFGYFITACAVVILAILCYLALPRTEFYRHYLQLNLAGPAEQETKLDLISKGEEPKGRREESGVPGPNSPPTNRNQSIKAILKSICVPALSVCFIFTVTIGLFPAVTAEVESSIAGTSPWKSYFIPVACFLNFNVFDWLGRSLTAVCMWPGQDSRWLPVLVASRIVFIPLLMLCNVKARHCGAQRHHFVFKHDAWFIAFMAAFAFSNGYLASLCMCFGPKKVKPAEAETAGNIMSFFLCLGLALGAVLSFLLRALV
The test is described as follows: Adenosine transport activity (ENT1, [3H]-adenosine uptake). The following applies: stable cells expressing mouse ENT-1; [2,8-3H]-adenosine 6 nM, 20 min. It is filed as cell-based. As to the method:
To measure adenosine transport activity of ENT-1 mammalian cells, stable cells expressing the mouse ENT-1 transporter were plated on day 1 in 96-well culture plates at the density of 60,000 cells/well, in complete DMEM/F12 medium supplemented with glutamax, 10% FBS and 10 μg/ml puromycin. On day 2, the medium was aspirated and the cells were washed twice with uptake buffer (10 mM Hepes-Tris, pH 7.4 containing 150 mM NaCl, 1 mM CaCl2, 2.5 mM KCl, 2.5 mM MgSO4, 10 mM D-glucose) (UB). For inhibition experiments, cells were then incubated at RT with various concentrations of compounds with 1% DMSO final. Non-specific uptake was defined in the presence of 10 μM S-(4-Nitrobenzyl)-6-thioinosine (NBTI, Sigma Cat #N2255).
A solution containing [2,8-^3H]-adenosine 6 nM (40 Ci/mmol, American Radiolabeled chemicals Inc, Cat #ART 0287A) was then immediately added to the wells. The plates were then incubated for 20 min with gentle shaking and the reaction was stopped by aspiration of the mixture and washing (three times) with ice-cold UB. The cells were lysed by the addition of scintillation liquid, shaken 3 hours and the radioactivity in the cells was estimated using a microplates scintillation counter (TopCount NXT, Packard).
Turning to “5-(3,3-Dimethyl-6-(2-methylpyrimidin-5-yl)-2-oxoindolin-1-yl)-N,2-dimethylnicotinamide [Example 41]”, the IC50 – broadly, the concentration that inhibits the measured activity by half – was 413 nM.

For `Cc1ncc(-c2ccc3c(c2)N(c2cncc(C(=O)N(C)C)n2)C(=O)C3(C)C)cn1` [Example 1, 6-(3,3-Dimethyl-6-(2-methylpyrimidin-5-yl)-2-oxoindolin-1-yl)-N,N-dimethylpyrazine-2-carboxamide], the IC50 was 19.5 nM.

Regarding `Cc1ncc(-c2ccc3c(c2)N(c2cncc(C(=O)N4CCC4)n2)C(=O)C3(C)C)cn1` [Example 3, 1-(6-(Azetidine-1-carbonyl)pyrazin-2-yl)-3,3-dimethyl-6-(2-methylpyrimidin-5-yl)indolin-2-one], the IC50 stood at 31.4 nM.

Take `Cc1ncc(-c2ccc3c(c2)N(c2cncc(C(=O)N(C)CC(F)(F)F)n2)C(=O)C3(C)C)cn1` [Example 4, 6-(3,3-Dimethyl-6-(2-methylpyrimidin-5-yl)-2-oxoindolin-1-yl)-N-methyl-N-(2,2,2-trifluoroethyl)pyrazine-2-carboxamide]: the IC50 worked out at 513 nM.

The molecule `COCCN(C)C(=O)c1cncc(N2C(=O)C(C)(C)c3ccc(-c4cnc(C)nc4)cc32)n1` [Example 5, 6-(3,3-Dimethyl-6-(2-methylpyrimidin-5-yl)-2-oxoindolin-1-yl)-N-(2-methoxyethyl)-N-methylpyrazine-2-carboxamide] displayed an IC50 of 382 nM.

In turn, `Cc1ncc(-c2ccc3c(c2)N(c2cncc(C(=O)NCCO)n2)C(=O)C3(C)C)cn1` [Example 6, 6-(3,3-Dimethyl-6-(2-methylpyrimidin-5-yl)-2-oxoindolin-1-yl)-N-(2-hydroxyethyl)pyrazine-2-carboxamide] yielded an IC50 of 30 nM.

Regarding `Cc1ncc(-c2ccc3c(c2)N(c2cncc(C(=O)NCC(F)(F)F)n2)C(=O)C3(C)C)cn1` [Example 8, 6-(3,3-Dimethyl-6-(2-methylpyrimidin-5-yl)-2-oxoindolin-1-yl)-N-(2,2,2-trifluoroethyl)pyrazine-2-carboxamide], half-maximal inhibition (IC50) was put at 451 nM.

Consider `Cc1ncc(-c2ccc3c(c2)N(c2cncc(C(=O)NC(C)C)n2)C(=O)C3(C)C)cn1` [Example 9, 6-(3,3-Dimethyl-6-(2-methylpyrimidin-5-yl)-2-oxoindolin-1-yl)-N-isopropylpyrazine-2-carboxamide], for which the IC50 came out at 196 nM.

Take `Cc1ncc(-c2ccc3c(c2)N(c2cncc(C(N)=O)n2)C(=O)C3(C)C)cn1` [Example 10, 6-(3,3-Dimethyl-6-(2-methylpyrimidin-5-yl)-2-oxoindolin-1-yl)pyrazine-2-carboxamide]: the IC50 came to 197 nM.

Molecule `Cc1ncc(-c2ccc3c(c2)N(c2cnc(C(=O)N(C)C(C)(C)C)cn2)C(=O)C3(C)C)cn1` [Example 12, N-(tert-Butyl)-5-(3,3-dimethyl-6-(2-methylpyrimidin-5-yl)-2-oxoindolin-1-yl)-N-methylpyrazine-2-carboxamide] gave an IC50 of 927 nM.

As to `Cc1ncc(-c2ccc3c(c2)N(c2cnc(C(=O)N4CCC4)cn2)C(=O)C3(C)C)cn1` [Example 13, 1-(5-(Azetidine-1-carbonyl)pyrazin-2-yl)-3,3-dimethyl-6-(2-methylpyrimidin-5-yl)indolin-2-one], the IC50 turned out to be 767 nM. This IC50 and that of the molecule before are within 1.5-fold of each other.

Molecule `COCCN(C)C(=O)c1cnc(N2C(=O)C(C)(C)c3ccc(-c4cnc(C)nc4)cc32)cn1` [Example 14, 5-(3,3-Dimethyl-6-(2-methylpyrimidin-5-yl)-2-oxoindolin-1-yl)-N-(2-methoxyethyl)-N-methylpyrazine-2-carboxamide] came in with an IC50 of 186 nM.

In the case of `Cc1ncc(-c2ccc3c(c2)N(c2cnc(C(N)=O)cn2)C(=O)C3(C)C)cn1` [Example 15, 5-(3,3-Dimethyl-6-(2-methylpyrimidin-5-yl)-2-oxoindolin-1-yl)pyrazine-2-carboxamide], the 50% inhibitory concentration (IC50) was determined as 391 nM. This IC50 lies about 2.1-fold higher than the previous one.

Molecule `Cc1ncc(-c2ccc3c(c2)N(c2nccc(C(=O)N(C)C)n2)C(=O)C3(C)C)cn1` [Example 17, 2-(3,3-Dimethyl-6-(2-methylpyrimidin-5-yl)-2-oxoindolin-1-yl)-N,N-dimethylpyrimidine-4-carboxamide] displayed an IC50 of 537 nM.

`CNC(=O)c1nc(N2C(=O)C(C)(C)c3ccc(-c4cnc(C)nc4)cc32)ncc1C` [Example 18, 2-(3,3-Dimethyl-6-(2-methylpyrimidin-5-yl)-2-oxoindolin-1-yl)-N,5-dimethylpyrimidine-4-carboxamide] had an IC50 of 78.4 nM. This IC50 lies about 6.8-fold lower than the previous one.

In turn, `Cc1ncc(-c2ccc3c(c2)N(c2ccnc(C(=O)N(C)C)n2)C(=O)C3(C)C)cn1` [Example 19, 4-(3,3-Dimethyl-6-(2-methylpyrimidin-5-yl)-2-oxoindolin-1-yl)-N,N-dimethylpyrimidine-2-carboxamide] registered a concentration for half-maximal inhibition (IC50) of 725 nM.

In the case of `CNC(=O)c1nccc(N2C(=O)C(C)(C)c3ccc(-c4cnc(C)nc4)cc32)n1` [Example 20, 4-(3,3-Dimethyl-6-(2-methylpyrimidin-5-yl)-2-oxoindolin-1-yl)-N-methylpyrimidine-2-carboxamide], the IC50 worked out at 120 nM. Compared with the last molecule, the IC50 is about 6-fold lower.

Turning to `Cc1ncc(-c2ccc3c(c2)N(c2ccc(C(=O)N(C)C)nn2)C(=O)C3(C)C)cn1` [Example 21, 6-(3,3-Dimethyl-6-(2-methylpyrimidin-5-yl)-2-oxoindolin-1-yl)-N,N-dimethylpyridazine-3-carboxamide], the half-inhibitory concentration (IC50) amounted to 964 nM.

Consider `Cc1ncc(-c2ccc3c(c2)N(c2cccc(C(=O)N(C)C)n2)C(=O)C3(C)C)cn1` [Example 23, 6-(3,3-Dimethyl-6-(2-methylpyrimidin-5-yl)-2-oxoindolin-1-yl)-N,N-dimethylpicolinamide], for which the IC50 stood at 374 nM.

For `Cc1ncc(-c2ccc3c(c2)N(c2cccc(C(=O)NCC4CC4)n2)C(=O)C3(C)C)cn1` [Example 25, N-(Cyclopropylmethyl)-6-(3,3-dimethyl-6-(2-methylpyrimidin-5-yl)-2-oxoindolin-1-yl)picolinamide], the IC50 turned out to be 49.9 nM.

The molecule `Cc1ncc(-c2ccc3c(c2)N(c2cccc(C(N)=O)n2)C(=O)C3(C)C)cn1` [Example 26, 6-(3,3-Dimethyl-6-(2-methylpyrimidin-5-yl)-2-oxoindolin-1-yl)picolinamide] registered an IC50 of 253 nM.

In turn, `CNC(=O)c1nc(N2C(=O)C(C)(C)c3ccc(-c4cnc(C)nc4)cc32)ccc1C` [Example 27, 6-(3,3-Dimethyl-6-(2-methylpyrimidin-5-yl)-2-oxoindolin-1-yl)-N,3-dimethylpicolinamide] came in with an IC50 of 14.8 nM. Against the preceding molecule, the IC50 is about 17-fold lower.

In turn, `Cc1ncc(-c2ccc3c(c2)N(c2ccc(C)c(C(=O)N(C)C)n2)C(=O)C3(C)C)cn1` [Example 28, 6-(3,3-Dimethyl-6-(2-methylpyrimidin-5-yl)-2-oxoindolin-1-yl)-N,N,3-trimethylpicolinamide] had a 50% inhibitory concentration (IC50) of 351 nM.

In turn, `Cc1ncc(-c2ccc3c(c2)N(c2cncc(C(=O)N(C)C)c2)C(=O)C3(C)C)cn1` [Example 30, 5-(3,3-Dimethyl-6-(2-methylpyrimidin-5-yl)-2-oxoindolin-1-yl)-N,N-dimethylnicotinamide] displayed an IC50 of 608 nM.

`Cc1ncc(-c2ccc3c(c2)N(c2cncc(C(=O)N4CCC4)c2)C(=O)C3(C)C)cn1` [Example 31, 1-(5-(Azetidine-1-carbonyl)pyridin-3-yl)-3,3-dimethyl-6-(2-methylpyrimidin-5-yl)indolin-2-one] yielded an IC50 of 202 nM.

`Cc1ncc(-c2ccc3c(c2)N(c2cncc(C(=O)NCC(F)(F)F)c2)C(=O)C3(C)C)cn1` [Example 32, 5-(3,3-Dimethyl-6-(2-methylpyrimidin-5-yl)-2-oxoindolin-1-yl)-N-(2,2,2-trifluoroethyl)nicotinamide] registered an IC50 of 477 nM.

`CNC(=O)c1cncc(N2C(=O)C(C)(C)c3ccc(-c4cnc(C)nc4)cc32)c1` [Example 33, 5-(3,3-Dimethyl-6-(2-methylpyrimidin-5-yl)-2-oxoindolin-1-yl)-N-methylnicotinamide] showed an IC50 of 559 nM.

On to `CNC(=O)c1cc(N2C(=O)C(C)(C)c3ccc(-c4cnc(C)nc4)cc32)cc(C)n1` [Example 34, 4-(3,3-Dimethyl-6-(2-methylpyrimidin-5-yl)-2-oxoindolin-1-yl)-N,6-dimethylpicolinamide], for which the IC50 turned out to be 1140 nM.

`CNC(=O)c1cc(N2C(=O)C(C)(C)c3ccc(-c4cnc(C)nc4)cc32)ccn1` [Example 35, 4-(3,3-Dimethyl-6-(2-methylpyrimidin-5-yl)-2-oxoindolin-1-yl)-N-methylpicolinamide] yielded a 50% inhibitory concentration (IC50) of 534 nM. Against the preceding molecule, the IC50 is about 2.1-fold lower.

`Cc1ncc(-c2ccc3c(c2)N(c2cnc4c(c2)C(=O)N(C)C4)C(=O)C3(C)C)cn1` [Example 36, 3-(3,3-Dimethyl-6-(2-methylpyrimidin-5-yl)-2-oxoindolin-1-yl)-6-methyl-6,7-dihydro-5H-pyrrolo[3,4-b]pyridin-5-one] gave an IC50 of 637 nM.
